Experimental data as given in US11504358B2, “Extended release methazolamide formulation” (Effcon Laboratories, Inc., priority 2017, dated 2022).

What was measured:
[1] = Methazolamide particle size testing, laser particle size analyzer; assay type: physicochemical; settings: particles milled in-house
Protocol: The following conventions apply when describing particle size distribution. D(v, 0.1) means that 10% of the particles are smaller than this diameter. D(v, 0.5) is the median particle diameter. D(v, 0.9) means that 90% of the particles are smaller than this diameter.
Methazolamide particle size testing was performed on unmilled methazolamide particles and methazolamide particles milled in-house and by a third party vendor according to the above milling procedure. Methazolamide particle size testing was conducted using a Mastersizer laser particle size analyzer from Malvern Instruments or a sonic shifter. The results of the particle size testing for methazolamide particles milled in-house, as measured by a laser particle size analyzer, are as follows: […]

[2] = in water, alcohol and acetone; cited from earlier work
[3] = Methazolamide particle size testing, sonic shifter (sieves); assay type: physicochemical
Protocol: Methazolamide particle size testing was performed on unmilled methazolamide particles and methazolamide particles milled in-house and by a third party vendor according to the above milling procedure. Methazolamide particle size testing was conducted using a Mastersizer laser particle size analyzer from Malvern Instruments or a sonic shifter. The results of the particle size testing for methazolamide particles milled in-house, as measured by a laser particle size analyzer, are as follows:
The results of the particle size testing for unmilled methazolamide particles, methazolamide particles milled in-house, and methazolamide particles milled by a third party vendor, as measured by a sonic shifter, are as follows: […]

[4] = Density of methazolamide particles; assay type: physicochemical

D(v, 0.1) [1] [μm]	D(v, 0.5) [1] [μm]	D(v, 0.9) [1] [μm]	% Retained, Fines Collector [3] [%]	% Retained, Sieve # 20 (840 μm) [3] [%]	% Retained, Sieve # 40 (420 μm) [3] [%]	% Retained, Sieve # 80 (177 μm) [3] [%]	% Retained, Sieve # 100 (149 μm) [3] [%]	% Retained, Sieve # 140 (105 μm) [3] [%]	% Retained, Sieve # 200 (74 μm) [3] [%]	Bulk Density [4] [g/mL]	Trapped Density [4] [g/mL]	Structure (SMILES)	Solubility [2]
42.15	121.45	255.75										CC(=O)/N=c1/sc(S(N)(=O)=O)nn1C [Sample 1]	
												CC(=O)N=c1sc(S(N)(=O)=O)nn1C [Methazolamide, N-[5-(aminosulfonyl)-3-methyl-1,3,4-thiadiazol-2(3H)-ylidene]acetamide]	slightly soluble
			15.56	5.15	6.14	21.88	17.14	21.90	12.29	0.53	1.00	CC(=O)/N=c1/sc(S(N)(=O)=O)nn1C [Milled API (3rd party)]	
48.42	128.46	267.26										CC(=O)/N=c1/sc(S(N)(=O)=O)nn1C [Sample 3]	
			0.83	0.09	7.95	75.05	8.04	6.01	2.03	0.92	1.03	CC(=O)/N=c1/sc(S(N)(=O)=O)nn1C [Unmilled API]	
			16.51	1.23	1.52	15.27	19.54	32.92	13.00	0.56	0.99	CC(=O)/N=c1/sc(S(N)(=O)=O)nn1C [Milled API (in-house)]	
47.67	132.34	269.30										CC(=O)/N=c1/sc(S(N)(=O)=O)nn1C [Sample 2]	
